{"source": "patent US20050171214A1", "about": "“Medicament for improving the failure of accommodation” (Fuji Chemical Industry Co., Ltd., priority 2001, published 2005)", "type_in_all_cases": "in vivo, human", "key": {"VDT workers [1]": {"system": "VDT workers", "assay": "Example 2: systemic side effects during 4-week administration", "settings": "B group, 5 mg/day orally for 4 weeks", "experimental": "(§1) As a control, 13 persons who have not been administered astaxanthin and have not worked in a VDT operation were indicated as the A group. 26 VDT workers were divided into two groups at random. The B group (13 persons) was orally administered 5 mg of astaxanthin/day for 4 consecutive weeks while the C group (13 persons) was orally administered a placebo for 4 consecutive weeks. No significant difference was recognized in age among the three groups.\n(§2) An astaxanthin capsule (5 mg/capsule) was orally administrated to each of the B group subjects one time a day 30 minutes before supper."}, "VDT workers [2]": {"system": "VDT workers", "assay": "Example 2: eye-accommodability (near point minus far point, D'Acomo apparatus), double-blind vs placebo", "settings": "mean ± SD, dioptres", "experimental": "as §1\n(§3) A double-blind test was conducted for the B and C groups.\nAlso, 26 workers were selected who had been engaged in a VDT operation for 4 hours per day, for 5 days (Monday to Friday every week) per week and for a year or more. […]\nThe eye-accommodability was evaluated by measurement of the near and far points.\nThe near point was measured with a D'Acomo apparatus (binocular opening constant point refraction near point ruler, a product of World Optical Corporation) according to the Uozato et al' method (Uozato H, Nagakawa A, Hirai H, Saishin M: A new near-point ruler using constant dioptric stimulus. Folia Ophthalmol Jpn 1988;39:1247-1248).\nThe far point was measured in the best-corrected refraction for each of the subjects.\nThe eye-accommodability (dioptres) was calculated by subtracting the far point (dioptres) from the near point (dioptres).\nThe data on before and after administration were analyzed statistically using a paired t-test. […]"}, "VDT workers [3]": {"system": "VDT workers", "assay": "Example 2: pattern visual evoked potentials (P100 amplitude and latency)", "experimental": "as §1, §3\n(§4) Also, 26 workers were selected who had been engaged in a VDT operation for 4 hours per day, for 5 days (Monday to Friday every week) per week and for a year or more. Their eyes were better than twenty-twenty (20/20). All of them wore eyeglasses for accommodation during the VDT operation.\n(§5) A double-blind test was conducted with respect to the VDT workers. The VDT workers were divided into an astaxanthin-administration group (n=13, B group) and placebo-administration group (n=13, C group). There was no difference in age among the three groups (Table 2 shown below).\nas §2\n(§6) All of these measurement items were conducted with each right eye of the subjects at a.m. 9:00-12:00 on a Saturday.\nThe pattern visual evoked potential was recorded according to the method established by the International Society for Clinical Electrophysiology of Vision to measure one positive peak strength (P100) and the latency (the difference […] between N75 peak and P100 peak).\n(§7) The data on before and after administration were analyzed statistically using a paired t-test. Also, the data for the A and B groups and those for the A and C groups were measured in an unpaired test. The probability value is below 0.05 that is considered to be significant."}, "VDT workers [4]": {"system": "VDT workers", "assay": "Example 2: eyesight at 5 m and 35 cm using a Landolt ring", "settings": "B group, 5 mg/day orally for 4 weeks", "experimental": "as §4, §5, §2\nThe eyesight was measured at each distance of 5 m and 35 cm using a Landolt ring."}, "VDT workers [5]": {"system": "VDT workers", "assay": "Example 2: critical flicker fusion (C.F.F. tester)", "experimental": "as §1, §3, §4, §5, §2, §6\nThe critical flicker fusion was determined by decreasing the frequency of the signals at a constant speed using a C.F.F. tester (a product of Yagami Co., Ltd.). There was used the average value of the three times value measured by the individual eyes of the subjects.\nas §7"}, "[6]": {"system": "person having subjective symptoms of eyestrain or working for VDT operation", "assay": "Example 1: double-blind accommodability test with an accommodometer, test food vs control food for 4 weeks", "settings": "intake of astaxanthin for 4 consecutive weeks; difference not recognized in control group", "source_text": "People satisfying the following selection standards were used as subjects.\n(1) A person having subjective symptoms of eyestrain or working for VDT operation, (2) 1.0 or more of both eyes in vision after correction. (3) 35-59 years old, (4) persons who do notusually take any medicines or health foods, (5) a person who can keep in compliance with all the test-related requirements and take the medical examinations stipulated by the test method.\nPersons who have retinal disorders or cataracts were excluded from the subjects.\nA test food with 5 mg /capsule of astaxanthin and a control food with 0 mg /capsule of astaxanthin were prepared. The test was conducted in a double-blind method.\nAfter completion of the accommodability test for the subjects using an accommodometer by which the change in the refraction value (accommodation reaction) during moving object can be measured continuously and objectively, and accommodation abnormalities including VDT syndrome can be detected clearly.\nA person in charge of the test prepared a subjects' name-list stratified by sex and the test results and handed it to a controller. The controller prepared an allocation table separating the subjects into test food group and control food group based on the name list. In addition, the controller stuck each label with a subject's name on the test food or control food according to the allocation table. […]"}, "[7]": {"settings": "B group baseline, n = 13 eye, mean ± SD"}, "[8]": {"settings": "B group, 5 mg/day orally for 4 weeks, n = 13 eye, mean ± SD"}, "[9]": {"settings": "B group, 5 mg/day orally for 4 weeks, vs before administration"}}, "note": "Values joined by “and” are separate entries in the source; they are usually repeats but may differ in a detail not shown here. Equal entries are not always repeated.", "data": [{"smiles": "CC1=C(/C=C/C(C)=C/C=C/C(C)=C/C=C/C=C(C)/C=C/C=C(C)/C=C/C2=C(C)C(=O)C(O)CC2(C)C)C(C)(C)CC(O)C1=O", "note": "(stereo not drawn) [astaxanthin, 3,3′-dihydroxy-β,β-carotene-4,4′-dione]", "values": [{"measurement": "Systemic side effects", "setting": "VDT workers [1]", "result": "no systemic side effects were recognized"}, {"measurement": "Accommodability (D), before administration of astaxanthin", "setting": "VDT workers [2]; B group baseline, n = 13 eye (right eye), p<0.05 lower than non-VDT A group (3.7 ± 1.5)", "result": "2.3 ± 1.4", "unit": "D"}, {"measurement": "Accommodability (D), after administration of astaxanthin", "setting": "VDT workers [2]; B group, 5 mg astaxanthin/day orally for 4 consecutive weeks, n = 13 eye, p<0.01 vs before administration", "result": "2.8±1.6", "unit": "D"}, {"measurement": "PVEP-P100 Amplitude (μV), before administration of astaxanthin", "setting": "VDT workers [3]; [7]", "result": "5.8±1.7", "unit": "μV"}, {"measurement": "PVEP-P100 Latency (msec), before administration of astaxanthin", "setting": "VDT workers [3]; [7]", "result": "102.5 ± 6.9", "unit": "ms"}, {"measurement": "PVEP-P100 Amplitude (μV), after administration of astaxanthin", "setting": "VDT workers [3]; [8]", "result": "5.6±1.6", "unit": "μV"}, {"measurement": "PVEP-P100 Latency (msec), after administration of astaxanthin", "setting": "VDT workers [3]; [8]", "result": "104 ± 7.4 ms and 104.8 ± 7.4 ms"}, {"measurement": "Change of amplitude of P100 in pattern visual evoked potentials after administration", "setting": "VDT workers [3]; [9]", "result": "did not appreciably change"}, {"measurement": "Change of latency of P100 in pattern visual evoked potentials after administration", "setting": "VDT workers [3]; [9]", "result": "did not appreciably change"}, {"measurement": "Change of eyesight at distances of 5 m and 35 cm, before vs after administration", "setting": "VDT workers [4]", "result": "did not appreciably change"}, {"measurement": "CFF (Hz), before administration of astaxanthin", "setting": "VDT workers [5]; [7]", "result": "39.9 ± 5.3", "unit": "Hz"}, {"measurement": "CFF (Hz), after administration of astaxanthin", "setting": "VDT workers [5]; [8]", "result": "38.4 ± 4.8", "unit": "Hz"}, {"measurement": "Change of critical flicker fusion after administration", "setting": "VDT workers [5]; [9]", "result": "did not (appreciably) change"}, {"measurement": "Change of eye-accommodability, before vs after intake", "setting": "[6]", "result": "increased in the test food group by a statistically significant difference"}]}]}
